Assay results reported in PMC6598440 (Clinical chemistry, 2016).
Read-outs that look alike come from different tables or passages of the source.

Experiments:
[1] = Comparison of plasma and whole blood hydroxyurea concentrations; format: in vivo, patients with SCA
[2] = cited from earlier work
[3] = for degradation: whole dried blood on DMPK-C cards and VAMS devices, 4 °C, 30 days

hydroxyurea concentrations in plasma and whole blood compared ([1]; patients with SCA treated with hydroxyurea, venipuncture or finger-prick sampling): comparable | plasma and whole blood hydroxyurea concentrations compared ([1]; preliminary data using an HPLC method): equivalent | % of the target concentration measured in freshly prepared samples ([3]; DMPK-C cards, stored at 4 °C, 0.5 μg/mL, T = 7 days): 90.17 ± 0.44% | % of the target concentration measured in freshly prepared samples ([3]; DMPK-C cards, stored at 4 °C, 0.5 μg/mL, T = 14 days): 81.75 ± 3.85% | % of the target concentration measured in freshly prepared samples ([3]; DMPK-C cards, stored at 4 °C, 0.5 μg/mL, T = 30 days): 75.85 ± 4.08% | % of the target concentration measured in freshly prepared samples ([3]; DMPK-C cards, stored at 4 °C, 60.0 μg/mL, T = 7 days): 65.37 ± 1.07% | % of the target concentration measured in freshly prepared samples ([3]; DMPK-C cards, stored at 4 °C, 60.0 μg/mL, T = 14 days): 54.13 ± 3.39% | % of the target concentration measured in freshly prepared samples ([3]; DMPK-C cards, stored at 4 °C, 60.0 μg/mL, T = 30 days): 48.58 ± 0.23% | % of the target concentration measured in freshly prepared samples ([3]; DMPK-C cards, stored at −20 °C, 0.5 μg/mL, T = 7 days): 95.08 ± 0.01% | % of the target concentration measured in freshly prepared samples ([3]; DMPK-C cards, stored at −20 °C, 0.5 μg/mL, T = 14 days): 90.56 ± 13.29% | % of the target concentration measured in freshly prepared samples ([3]; DMPK-C cards, stored at −20 °C, 0.5 μg/mL, T = 30 days): 96.07 ± 5.12% | % of the target concentration measured in freshly prepared samples ([3]; DMPK-C cards, stored at −20 °C, 60.0 μg/mL, T = 7 days): 90.88 ± 1.83% | % of the target concentration measured in freshly prepared samples ([3]; DMPK-C cards, stored at −20 °C, 60.0 μg/mL, T = 14 days): 92.99 ± 2.03% | % of the target concentration measured in freshly prepared samples ([3]; DMPK-C cards, stored at −20 °C, 60.0 μg/mL, T = 30 days): 93.07 ± 3.11% | % of the target concentration measured in freshly prepared samples ([3]; DMPK-C cards, stored at −80 °C, 0.5 μg/mL, T = 7 days): 102.14 ± 0.59% | % of the target concentration measured in freshly prepared samples ([3]; DMPK-C cards, stored at −80 °C, 0.5 μg/mL, T = 14 days): 97.41 ± 14.36% | % of the target concentration measured in freshly prepared samples ([3]; DMPK-C cards, stored at −80 °C, 0.5 μg/mL, T = 30 days): 99.98 ± 3.81% | % of the target concentration measured in freshly prepared samples ([3]; DMPK-C cards, stored at −80 °C, 60.0 μg/mL, T = 7 days): 93.69 ± 3.64% | % of the target concentration measured in freshly prepared samples ([3]; DMPK-C cards, stored at −80 °C, 60.0 μg/mL, T = 14 days): 94.22 ± 2.34% | % of the target concentration measured in freshly prepared samples ([3]; DMPK-C cards, stored at −80 °C, 60.0 μg/mL, T = 30 days): 100.45 ± 1.09% | % of the target concentration measured in freshly prepared samples ([3]; VAMS devices, stored at 4 °C, 0.5 μg/mL, T = 7 days): 87.90 ± 10.32% | % of the target concentration measured in freshly prepared samples ([3]; VAMS devices, stored at 4 °C, 0.5 μg/mL, T = 14 days): 91.86 ± 7.97% | % of the target concentration measured in freshly prepared samples ([3]; VAMS devices, stored at 4 °C, 0.5 μg/mL, T = 30 days): 75.11 ± 0.56% | % of the target concentration measured in freshly prepared samples ([3]; VAMS devices, stored at 4 °C, 60.0 μg/mL, T = 7 days): 64.19 ± 1.28% | % of the target concentration measured in freshly prepared samples ([3]; VAMS devices, stored at 4 °C, 60.0 μg/mL, T = 14 days): 51.98 ± 0.46% | % of the target concentration measured in freshly prepared samples ([3]; VAMS devices, stored at 4 °C, 60.0 μg/mL, T = 30 days): 46.14 ± 0.98% | % of the target concentration measured in freshly prepared samples ([3]; VAMS devices, stored at −20 °C, 0.5 μg/mL, T = 7 days): 106.52 ± 12.11% | % of the target concentration measured in freshly prepared samples ([3]; VAMS devices, stored at −20 °C, 0.5 μg/mL, T = 14 days): 103.15 ± 2.56% | % of the target concentration measured in freshly prepared samples ([3]; VAMS devices, stored at −20 °C, 0.5 μg/mL, T = 30 days): 95.37 ± 6.01% | % of the target concentration measured in freshly prepared samples ([3]; VAMS devices, stored at −20 °C, 60.0 μg/mL, T = 7 days): 83.69 ± 1.28% | % of the target concentration measured in freshly prepared samples ([3]; VAMS devices, stored at −20 °C, 60.0 μg/mL, T = 14 days): 82.55 ± 1.65% | % of the target concentration measured in freshly prepared samples ([3]; VAMS devices, stored at −20 °C, 60.0 μg/mL, T = 30 days): 82.48 ± 0.78% | % of the target concentration measured in freshly prepared samples ([3]; VAMS devices, stored at −80 °C, 0.5 μg/mL, T = 7 days): 101.92 ± 10.34% | % of the target concentration measured in freshly prepared samples ([3]; VAMS devices, stored at −80 °C, 0.5 μg/mL, T = 14 days): 103.58 ± 3.20% | % of the target concentration measured in freshly prepared samples ([3]; VAMS devices, stored at −80 °C, 0.5 μg/mL, T = 30 days): 106.00 ± 8.10% | % of the target concentration measured in freshly prepared samples ([3]; VAMS devices, stored at −80 °C, 60.0 μg/mL, T = 7 days): 86.62 ± 1.86% | % of the target concentration measured in freshly prepared samples ([3]; VAMS devices, stored at −80 °C, 60.0 μg/mL, T = 14 days): 90.21 ± 0.94% | % of the target concentration measured in freshly prepared samples ([3]; VAMS devices, stored at −80 °C, 60.0 μg/mL, T = 30 days): 93.53 ± 0.68% | degradation ([3]; 0.5 μg/mL): 25% | degradation ([3]; 60 μg/mL): 52%
Structure (SMILES): NC(=O)NO [hydroxyurea, Hydroxyurea]
typical peak serum or plasma hydroxyurea concentrations ([2]; children with SCA, measured by colorimetry): 15 to 45 µg/mL | elimination [2]: primarily by renal clearance | half-life [2]: 1 to 3 h | time drug is detectable after the daily dose ([2]; most patients): 6 to 8 h | time of peak serum concentrations after administration ([2]; oral, once daily): 15 to 60 min | oral bioavailability ([2]; oral): excellent
